In US20230183335A1, “GLP1R AGONIST NMDAR ANTAGONIST CONJUGATES” (KØBENHAVNS UNIVERSITET, priority 2020, published 2023):
Non-standard residues stand in square brackets, D forms with d. Groups on a side chain read outwards from the residue. No end group written: not given here. disulfide linker = not defined here; Pen = CC(C)(S)[C@H](N)C(=O)O

Tests used:
Type in all cases: in vivo
DIO mice [1] = experiment: Body composition (fat and lean mass, MRI) in DIO mice; conditions: for change in fat body mass (Delta change) / change in lean body mass (Delta change): FIG. 7, 40 nmol/kg or equimolar, DIO mice treated for 8 days
Method: (§1) C57BL6J male mice, in the following referred to as diet-induced obesity (DIO) mice, were maintained on a high-fat diet (58% energy from fat) and had, for each study, an average body weight of more than 45 gram prior to study start. Mice were either housed individually or double-housed. The mice were maintained on a 12 h dark-light cycle at 21-23° C. Compounds were administered subcutaneously once daily (between 2 pm-5 pm) and food intake (FI) and body weight (BW) measured at the corresponding time. For body composition, measures of fat and lean mass were performed prior to the study (1-3 days prior to study start) and on the final day of the study using an MRI scanner (EchoMRI). The group of mice injected with a vehicle (saline) served as the control group.

DIO mice [2] = experiment: Body weight in diet-induced obesity (DIO) mice; conditions: for reduction in body weight (BW %): FIG. 8, after 10 days of treatment; for body weight percentage (BW %) reduction: FIG. 4, 40 nmol/kg or equimolar, DIO mice treated for 8 days; for reduction in body weight %: FIG. 14, DIO mice treated for 5 days, N=7
Method: as §1

DIO mice [3] = experiment: Food intake in diet-induced obesity (DIO) mice
Method: as §1

[4] = 100 nmol/kg or equimolar, DIO mice
[5] = FIG. 9, 100 nmol/kg or equimolar, DIO mice treated for 10 days
[6] = FIG. 11, 100 nmol/kg, DIO mice treated for 10 days
[7] = FIG. 5, equimolar doses, DIO mice treated for 8 days, compared to vehicle and memantine
[8] = FIG. 6, 40 nmol/kg or equimolar, DIO mice treated for 8 days

CC12CC3CC(C)(C1)CC(N)(C3)C2 [memantine, reference compound]
change in fat body mass (Delta change) (DIO mice [1]): reduction in fat body mass
change in lean body mass (Delta change) (DIO mice [1]): nearly no change

GLP-1 Cys40/MK801: peptide of SEQ ID NO:1 conjugated with chemical linker derivatized MK801, cysteine linked (HAEGTFTSDVSSYLEEQAAKEFIAWLVKGGPSSGAPPPSC; not fully specified (residue 40, C-terminus); ends and bridges not checked; listed as Homo sapiens)
reduction in body weight (BW %) (DIO mice [2]; [4]): ~12%
cumulative food intake (FI Cumulative) (DIO mice [3]; [5]): approximately 13 g/day
cumulative food intake less than the vehicle-treated mice (DIO mice [3]; FIG. 9, 100 nmol/kg, DIO mice treated for 10 days): approximately 10 g/day
daily food intake (FI daily) (DIO mice [3]; FIG. 10, 100 nmol/kg, DIO mice treated for 10 days, compared to vehicle): reduction in food intake was observed all 10 days
change in fat mass (reduction) (DIO mice [1]; [6]): ~5 g
change in lean body mass (DIO mice [1]; [6]): reduction in both fat and lean body mass

GLP-1 Cys40: the peptide of SEQ ID NO:1, C-terminal unmodified cysteine (HAEGTFTSDVSSYLEEQAAKEFIAWLVKGGPSSGAPPPSC; not fully specified (C-terminus); ends and bridges not checked; listed as Homo sapiens)
body weight percentage (BW %) reduction (DIO mice [2]): lowered BW %
reduction in body weight (BW %) (DIO mice [2]; [4]): approximately 8%
body weight reduction (DIO mice [2]; FIG. 12, 100 nmol/kg or equimolar, DIO mice, after 5 days of treatment): approximately 4%
reduction in body weight % (DIO mice [2]; 100 nmol/kg or equimolar): approximately 6%
cumulative food intake (FI Cumulative) (DIO mice [3]; [7]): lowered cumulative food intake
daily food intake (FI daily) (DIO mice [3]; [8]): lowered daily food intake
daily food intake (FI daily) (DIO mice [3]; FIG. 6, 40 nmol/kg or equimolar, DIO mice treated for 8 days, listed as GLP-1): only a slight reduction in food intake
cumulative food intake (FI Cumulative) (DIO mice [3]; [5]): lowered cumulative food intake
change in fat body mass (Delta change) (DIO mice [1]): reduction in fat body mass
change in lean body mass (Delta change) (DIO mice [1]): nearly no change

C[C@]12N[C@H](Cc3ccccc31)c1ccccc12 [MK801, reference compound]
reduction in body weight (BW %) (DIO mice [2]; [4]): nearly no percentage change

GLP-1 Pen40: peptide of SEQ ID NO:1 with the Pen40 (L-penicillamine) modification (HAEGTFTSDVSSYLEEQAAKEFIAWLVKGGPSSGAPPPSC; not fully specified (residue 40, C-terminus); ends and bridges not checked; listed as Homo sapiens)
reduction in body weight % (DIO mice [2]; 100 nmol/kg or equimolar): approximately 6%

GIP/GLP-1/MK801 conjugate: co-agonist GIP/GLP-1 Pen40/MK801 conjugate, peptide according to SEQ ID NO:9 (YGEGTFTSDYSIYLDKQAAKEFVNWLLAGGPSSGAPPPS[Pen]([disulfide linker-MK801]); not fully specified (C-terminus); printed as YX1EGT FTSDY SIYLD KQAAX1 EFVNW LLAGG PSSGA PPPSX2; reading uncertain; also: MK801 attached via disulfide linker; listed as Homo sapiens)
overall reduction in body weight compared to the control group (DIO mice [2]; FIG. 33, 50 nmol/kg, DIO mice treated for 7 days): approximately 25%
cumulative food intake (Cumulative FI) (DIO mice [3]; FIG. 34, 50 nmol/kg, DIO mice treated for 7 days, control group 15 g): approximately 3 g

GLP-1 Cys40/Memantine: conjugate of peptide of SEQ ID NO:1 and memantine appended via disulfide linker, unmodified cysteine (cysteine linked) (HAEGTFTSDVSSYLEEQAAKEFIAWLVKGGPSSGAPPPSC; not fully specified (residue 40, C-terminus); ends and bridges not checked; listed as Homo sapiens)
body weight percentage (BW %) reduction (DIO mice [2]): approximately 7%
cumulative food intake (FI Cumulative) (DIO mice [3]; [7]): lowered cumulative food intake
daily food intake (FI daily) (DIO mice [3]; [8]): lowered daily food intake
change in fat body mass (Delta change) (DIO mice [1]): approximately 4 g
change in lean body mass (Delta change) (DIO mice [1]): nearly no change
